Some results are limits rather than exact numbers.

Our source for the AC50 values is patent publication US20230365592A1 (Agios Pharmaceuticals, Inc., priority 2022, published 2023).

The target of the experiment is T1, human PAH with the R408W mutation (Homo sapiens, UniProt P00439, R408W).
T1 construct: expressed in transfected cells
T1 sequence (P00439 1-452 R408W): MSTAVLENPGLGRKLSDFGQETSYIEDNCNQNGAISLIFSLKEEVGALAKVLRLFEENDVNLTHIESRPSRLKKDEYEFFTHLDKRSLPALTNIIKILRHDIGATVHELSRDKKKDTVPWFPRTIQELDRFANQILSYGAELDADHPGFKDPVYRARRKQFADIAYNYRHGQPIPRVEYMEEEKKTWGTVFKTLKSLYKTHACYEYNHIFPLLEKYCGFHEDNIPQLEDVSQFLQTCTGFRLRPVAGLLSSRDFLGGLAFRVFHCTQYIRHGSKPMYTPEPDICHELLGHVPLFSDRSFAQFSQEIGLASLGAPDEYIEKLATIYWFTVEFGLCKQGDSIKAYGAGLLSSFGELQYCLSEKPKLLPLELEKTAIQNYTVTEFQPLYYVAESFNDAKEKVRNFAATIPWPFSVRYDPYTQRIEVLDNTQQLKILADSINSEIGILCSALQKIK
Put plainly: Cell Based Phenylalanine Flux Assay.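 Further: after compound treatment, cells received sepiapterin plus isotope-labelled Phenylalanine for 4 hours, then labelled Tyrosine in the medium was quantified, 10-point 2-fold dilution series run in duplicate.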 The note with it: A375 cells expressing human R408W PAH; 24 hrs compound incubation; 13C-Tyrosine by LC-MS; average where tested multiple times; read-out: AC50.
With `Cn1nc(C(F)F)nc1C(=O)N1CCc2[nH]cnc2[C@@H]1c1cc2c(F)cccn2n1` [Example 765, (R)-(3-(difluoromethyl)-1-methyl-1H-1,2,4-triazol-5-yl)(4-(4-fluoropyrazolo[1,5-a]pyridin-2-yl)-6,7-dihydro-1H-imidazo[4,5-c]pyridin-5(4H)-yl)methanone], the AC50 lay within 1000 to 5000 nM.
Take `O=C(c1cnco1)N1CCc2[nH]cnc2[C@H]1c1cc2c(Cl)cccn2n1` [Example 766, (S)-(4-(4-chloropyrazolo[1,5-a]pyridin-2-yl)-6,7-dihydro-1H-imidazo[4,5-c]pyridin-5(4H)-yl)(oxazol-5-yl)methanone]: the AC50 was under 500 nM.
For `O=C(c1cnco1)N1CCc2[nH]cnc2[C@@H]1c1cc2c(Cl)cccn2n1` [Example 767, (R)-(4-(4-chloropyrazolo[1,5-a]pyridin-2-yl)-6,7-dihydro-1H-imidazo[4,5-c]pyridin-5(4H)-yl)(oxazol-5-yl)methanone] the value was over 5000 nM; for `Cc1cccn2nc([C@@H]3c4nc[nH]c4CCN3C(=O)c3cnco3)cc12` [Example 768, (S)-(4-(4-methylpyrazolo[1,5-a]pyridin-2-yl)-6,7-dihydro-1H-imidazo[4,5-c]pyridin-5(4H)-yl)(oxazol-5-yl)methanone], under 500 nM.
In the case of `Cc1ncoc1C(=O)N1CCc2[nH]cnc2[C@H]1c1cc2c(C)cccn2n1` [Example 770, (S)-(4-methyloxazol-5-yl)(4-(4-methylpyrazolo[1,5-a]pyridin-2-yl)-6,7-dihydro-1H-imidazo[4,5-c]pyridin-5(4H)-yl)methanone], the AC50 was under 500 nM.
Then `Cc1ncoc1C(=O)N1CCc2[nH]cnc2[C@@H]1c1cc2c(C)cccn2n1` [Example 771, (R)-(4-methyloxazol-5-yl)(4-(4-methylpyrazolo[1,5-a]pyridin-2-yl)-6,7-dihydro-1H-imidazo[4,5-c]pyridin-5(4H)-yl)methanone], with 1000 to 5000 nM; and `O=C(c1ocnc1C(F)(F)F)N1CCc2[nH]cnc2[C@H]1c1cc2c(F)cccn2n1` [Example 772, (S)-(4-(4-fluoropyrazolo[1,5-a]pyridin-2-yl)-6,7-dihydro-1H-imidazo[4,5-c]pyridin-5(4H)-yl)(4-(trifluoromethyl)oxazol-5-yl)methanone], with under 500 nM.
For `O=C(c1ocnc1C(F)(F)F)N1CCc2[nH]cnc2[C@@H]1c1cc2c(F)cccn2n1` [Example 773, (R)-(4-(4-fluoropyrazolo[1,5-a]pyridin-2-yl)-6,7-dihydro-1H-imidazo[4,5-c]pyridin-5(4H)-yl)(4-(trifluoromethyl)oxazol-5-yl)methanone] the value was 500 to 1000 nM; for `Cc1ncoc1C(=O)N1CCc2[nH]cnc2[C@H]1c1cc2c(F)cccn2n1` [Example 774, (S)-(4-(4-fluoropyrazolo[1,5-a]pyridin-2-yl)-6,7-dihydro-1H-imidazo[4,5-c]pyridin-5(4H)-yl)(4-methyloxazol-5-yl)methanone], under 500 nM; for `Cc1ncoc1C(=O)N1CCc2[nH]cnc2[C@@H]1c1cc2c(F)cccn2n1` [Example 775, (R)-(4-(4-fluoropyrazolo[1,5-a]pyridin-2-yl)-6,7-dihydro-1H-imidazo[4,5-c]pyridin-5(4H)-yl)(4-methyloxazol-5-yl)methanone], over 5000 nM.
In the case of `O=C(c1ccnn1C(F)F)N1CCc2[nH]cnc2[C@H]1c1cc2c(F)cccn2n1` [Example 776, (S)-(1-(difluoromethyl)-1H-pyrazol-5-yl)(4-(4-fluoropyrazolo[1,5-a]pyridin-2-yl)-6,7-dihydro-1H-imidazo[4,5-c]pyridin-5(4H)-yl)methanone], the AC50 was under 500 nM.
`O=C(c1ccnn1C(F)F)N1CCc2[nH]cnc2[C@@H]1c1cc2c(F)cccn2n1` [Example 777, (R)-(1-(difluoromethyl)-1H-pyrazol-5-yl)(4-(4-fluoropyrazolo[1,5-a]pyridin-2-yl)-6,7-dihydro-1H-imidazo[4,5-c]pyridin-5(4H)-yl)methanone]: the AC50 is over 5000 nM.
Then `COc1cccn2nc([C@@H]3c4nc[nH]c4CCN3C(=O)c3nnc(-c4ccccn4)o3)cc12` [Example 779, (S)-(4-(4-methoxypyrazolo[1,5-a]pyridin-2-yl)-6,7-dihydro-1H-imidazo[4,5-c]pyridin-5(4H)-yl)(5-(pyridin-2-yl)-1,3,4-oxadiazol-2-yl)methanone], with 500 to 1000 nM; and `Cn1nc(C(F)F)nc1C(=O)N1CCc2[nH]cnc2[C@H]1c1cc2c(Cl)cccn2n1` [Example 780, (S)-(4-(4-chloropyrazolo[1,5-a]pyridin-2-yl)-6,7-dihydro-1H-imidazo[4,5-c]pyridin-5(4H)-yl)(3-(difluoromethyl)-1-methyl-1H-1,2,4-triazol-5-yl)methanone], with under 500 nM.
As for `O=C(c1ccnn1C(F)F)N1CCc2[nH]cnc2[C@H]1c1cc2c(Cl)cccn2n1` [Example 782, (S)-(4-(4-chloropyrazolo[1,5-a]pyridin-2-yl)-6,7-dihydro-1H-imidazo[4,5-c]pyridin-5(4H)-yl)(1-(difluoromethyl)-1H-pyrazol-5-yl)methanone], the concentration at half-maximal activity (AC50) was under 500 nM.
For `Cc1c([C@@H]2c3nc[nH]c3CCN2C(=O)c2ocnc2C(F)F)nn2ccccc12` [Example 784, (S)-(4-(difluoromethyl)oxazol-5-yl)(4-(3-methylpyrazolo[1,5-a]pyridin-2-yl)-6,7-dihydro-1H-imidazo[4,5-c]pyridin-5(4H)-yl)methanone] the value was under 500 nM; for `Cc1c([C@H]2c3nc[nH]c3CCN2C(=O)c2ocnc2C(F)F)nn2ccccc12` [Example 785, (R)-(4-(difluoromethyl)oxazol-5-yl)(4-(3-methylpyrazolo[1,5-a]pyridin-2-yl)-6,7-dihydro-1H-imidazo[4,5-c]pyridin-5(4H)-yl)methanone], 1000 to 5000 nM.
Then `Cc1c([C@@H]2c3nc[nH]c3CCN2C(=O)c2oc(C(C)(C)O)nc2C(F)F)nn2ccccc12` [Example 786, (S)-(4-(difluoromethyl)-2-(2-hydroxypropan-2-yl)oxazol-5-yl)(4-(3-methylpyrazolo[1,5-a]pyridin-2-yl)-6,7-dihydro-1H-imidazo[4,5-c]pyridin-5(4H)-yl)methanone], with under 500 nM.
Take `COc1ccc(-c2nnc(C(=O)N3CCc4[nH]cnc4[C@@H]3c3cc4c(F)cccn4n3)o2)nc1` [Example 789, (R)-(4-(4-fluoropyrazolo[1,5-a]pyridin-2-yl)-6,7-dihydro-1H-imidazo[4,5-c]pyridin-5(4H)-yl)(5-(5-methoxypyridin-2-yl)-1,3,4-oxadiazol-2-yl)methanone]: the AC50 lay in the range of 1000 to 5000 nM.
Then `O=C(c1nnc(-c2ncccc2F)o1)N1CCc2[nH]cnc2[C@@H]1c1cc2c(F)cccn2n1` [Example 790, (R)-(4-(4-fluoropyrazolo[1,5-a]pyridin-2-yl)-6,7-dihydro-1H-imidazo[4,5-c]pyridin-5(4H)-yl)(5-(3-fluoropyridin-2-yl)-1,3,4-oxadiazol-2-yl)methanone], with over 5000 nM; and `Cc1cccc2cc([C@@H]3c4nc[nH]c4CCN3C(=O)c3ocnc3C(F)F)nn12` [Example 792, (S)-(4-(difluoromethyl)oxazol-5-yl)(4-(7-methylpyrazolo[1,5-a]pyridin-2-yl)-6,7-dihydro-1H-imidazo[4,5-c]pyridin-5(4H)-yl)methanone], with under 500 nM.
For `Cc1cccc2cc([C@H]3c4nc[nH]c4CCN3C(=O)c3ocnc3C(F)F)nn12` [Example 793, (R)-(4-(difluoromethyl)oxazol-5-yl)(4-(7-methylpyrazolo[1,5-a]pyridin-2-yl)-6,7-dihydro-1H-imidazo[4,5-c]pyridin-5(4H)-yl)methanone] the value was 500 to 1000 nM; for `Cc1cccc2cc([C@@H]3c4nc[nH]c4CCN3C(=O)c3oc(C(C)(C)O)nc3C(F)F)nn12` [Example 794, (S)-(4-(difluoromethyl)-2-(2-hydroxypropan-2-yl)oxazol-5-yl)(4-(7-methylpyrazolo[1,5-a]pyridin-2-yl)-6,7-dihydro-1H-imidazo[4,5-c]pyridin-5(4H)-yl)methanone], under 500 nM; for `Cc1cccc2cc([C@H]3c4nc[nH]c4CCN3C(=O)c3oc(C(C)(C)O)nc3C(F)F)nn12` [Example 795, (R)-(4-(difluoromethyl)-2-(2-hydroxypropan-2-yl)oxazol-5-yl)(4-(7-methylpyrazolo[1,5-a]pyridin-2-yl)-6,7-dihydro-1H-imidazo[4,5-c]pyridin-5(4H)-yl)methanone], 1000 to 5000 nM.
Then `O=C(c1nnc(-c2cnn(C(F)F)c2)o1)N1CCc2[nH]cnc2[C@H]1c1cc2c(F)cccn2n1` [Example 796, (S)-(5-(1-(difluoromethyl)-1H-pyrazol-4-yl)-1,3,4-oxadiazol-2-yl)(4-(4-fluoropyrazolo[1,5-a]pyridin-2-yl)-6,7-dihydro-1H-imidazo[4,5-c]pyridin-5(4H)-yl)methanone], with under 500 nM; and `Cc1cccc2cc([C@@H]3c4nc[nH]c4CCN3C(=O)c3nnc(-c4ccccn4)o3)nn12` [Example 798, (S)-(4-(7-methylpyrazolo[1,5-a]pyridin-2-yl)-6,7-dihydro-1H-imidazo[4,5-c]pyridin-5(4H)-yl)(5-(pyridin-2-yl)-1,3,4-oxadiazol-2-yl)methanone], with under 500 nM; and `Cc1cccc2cc([C@H]3c4nc[nH]c4CCN3C(=O)c3nnc(-c4cnn(C)c4)o3)nn12` [Example 801, (R)-(5-(1-methyl-1H-pyrazol-4-yl)-1,3,4-oxadiazol-2-yl)(4-(7-methylpyrazolo[1,5-a]pyridin-2-yl)-6,7-dihydro-1H-imidazo[4,5-c]pyridin-5(4H)-yl)methanone], with over 5000 nM.

Broadly, the AC50 is the midpoint of the concentration-response curve, whichever way the signal moves.
